Laboratory results as given in patent US20260085053A1, “BENZOFURAN DERIVATIVES AS SIK INHIBITORS AND THE USE THEREOF” (BEONE MEDICINES I GMBH, priority 2023, published 2026).

Legend:
[1] = molecular target: T1, SIK3 kinase (aa59-365, Thermo Fisher) (Homo sapiens, UniProt Q9Y2K2); experiment: Biochemical activities determination for SIK3 protein (TR-FRET); conditions: 125 uM ATP, 0.5 μM STK1 substrate
T1 construct: SIK3 kinase (aa59-365, Thermo Fisher); purchased Thermo Fisher
Description: 3. Biochemical Activities Determination for SIK3 Protein
Compounds were tested for inhibition of SIK3 kinase (aa59-365, Thermo Fisher) in assays based on the time-resolved fluorescence-resonance energy transfer (TR-FRET) methodology. The assays were carried out in 384-well low volume white plates in a reaction mixture containing SIK3 kinase, 125 uM ATP, 0.5 μM STK1 substrate and 0-10 μM compound in buffer containing 25 mM Tris, 0.01% Trition X-100, 0.5 mM EGTA, 5 mM MgCl2, 2.5 mM DTT, PH=7.5. The kinase was incubated with compound for 60 minutes at room temperature and the reaction was initiated by the addition of ATP and STK1 substrate. After reaction at room temperature for 180 minutes, an equal volume of stop/detection solution was added according to the manufacture's instruction (CisBio Bioassays). The stop/detection solution contained STK Antibody-Cryptate and XL665-conjugated streptavidin (Cat: 62ST1PEC, Cisbio) in Detection Buffer (Cat: 62SDBRDF, Cisbio). Plates were sealed and incubated at room temperature for overnight, and the TR-FRET signals (ratio of fluorescence emission at 665 nm over emission at 620 nm with excitation at 337 nm wavelength) were recorded on a PHERAstar FS plate reader (BMG Labtech). Phosphorylation of STK1 substrate led to the binding of STK Antibody-Cryptate to the biotinylated STK1 substrate, which places fluorescent donor (Eu^3+ crypate) in close proximity to the accepter (Streptavidin-XL665), thus resulting in a high degree of fluorescence resonance energy transfer from the donor fluorophore (at 620 nm) to the acceptor fluorophore (at 665 nm). […] The IC50 for each compound was derived from fitting the data to the four-parameter logistic equation by Dotmatics.

[2] = molecular target: T2, SIK1 kinase (aa1-303, Thermo Fisher) (Homo sapiens, UniProt P57059); experiment: Biochemical activities determination for SIK1 protein (TR-FRET); conditions: 110 uM ATP, 0.5 μM STK1 substrate
T2 construct: SIK1 kinase (aa1-303, Thermo Fisher); purchased Thermo Fisher
T2 sequence (P57059 1-303): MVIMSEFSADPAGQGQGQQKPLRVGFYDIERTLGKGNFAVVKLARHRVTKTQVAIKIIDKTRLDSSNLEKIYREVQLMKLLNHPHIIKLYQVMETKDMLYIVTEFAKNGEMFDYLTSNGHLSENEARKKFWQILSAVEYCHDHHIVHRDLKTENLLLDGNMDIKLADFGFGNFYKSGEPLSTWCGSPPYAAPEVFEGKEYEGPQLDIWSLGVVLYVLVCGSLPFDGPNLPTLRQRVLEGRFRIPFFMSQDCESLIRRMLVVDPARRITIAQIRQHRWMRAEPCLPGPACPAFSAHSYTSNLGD
Description: 1. Biochemical Activities Determination for SIK1 Protein
(§1) Compounds were tested for inhibition of SIK1 kinase (aa1-303, Thermo Fisher) in assays based on the time-resolved fluorescence-resonance energy transfer (TR-FRET) methodology. The assays were carried out in 384-well low volume white plates in a reaction mixture containing SIK1 kinase, 110 uM ATP, 0.5 μM STK1 substrate and 0-10 μM compound in buffer containing 25 mM Tris, 0.01% Trition X-100, 0.5 mM EGTA, 5 mM MgCl2, 2.5 mM DTT, pH=7.5. The kinase was incubated with compounds for 60 minutes at room temperature and the reaction was initiated by the addition of ATP and STK1 substrate. After reaction at room temperature for 180 minutes, an equal volume of stop/detection solution was added according to the manufacture's instruction (CisBio Bioassays). The stop/detection solution contained STK Antibody-Cryptate and XL665-conjugated streptavidin (Cat: 62ST1PEC, Cisbio) in Detection Buffer (Cat: 62SDBRDF, Cisbio). Plates were sealed and incubated at room temperature for overnight, and the TR-FRET signals (ratio of fluorescence emission at 665 nm over emission at 620 nm with excitation at 337 nm wavelength) were recorded on a PHERAstar FS plate reader (BMG Labtech). Phosphorylation of STK1 substrate led to the binding of STK Antibody-Cryptate to the biotinylated SIK1 substrate, which places fluorescent donor (Eu^3+ crypate) in close proximity to the accepter (Streptavidin-XL665), thus resulting in a high degree of fluorescence resonance energy transfer from the donor fluorophore (at 620 nm) to the acceptor fluorophore (at 665 nm). […] The IC50 for each compound was derived from fitting the data to the four-parameter logistic equation by Dotmatics.

[3] = molecular target: T3, SIK2 kinase (full length, Thermo Fisher) (Homo sapiens, UniProt Q9H0K1); experiment: Biochemical activities determination for SIK2 protein (TR-FRET); conditions: 80 uM ATP, 0.5 μM substrate
T3 construct: SIK2 kinase (full length, Thermo Fisher); purchased Thermo Fisher
T3 sequence (Q9H0K1 whole entry): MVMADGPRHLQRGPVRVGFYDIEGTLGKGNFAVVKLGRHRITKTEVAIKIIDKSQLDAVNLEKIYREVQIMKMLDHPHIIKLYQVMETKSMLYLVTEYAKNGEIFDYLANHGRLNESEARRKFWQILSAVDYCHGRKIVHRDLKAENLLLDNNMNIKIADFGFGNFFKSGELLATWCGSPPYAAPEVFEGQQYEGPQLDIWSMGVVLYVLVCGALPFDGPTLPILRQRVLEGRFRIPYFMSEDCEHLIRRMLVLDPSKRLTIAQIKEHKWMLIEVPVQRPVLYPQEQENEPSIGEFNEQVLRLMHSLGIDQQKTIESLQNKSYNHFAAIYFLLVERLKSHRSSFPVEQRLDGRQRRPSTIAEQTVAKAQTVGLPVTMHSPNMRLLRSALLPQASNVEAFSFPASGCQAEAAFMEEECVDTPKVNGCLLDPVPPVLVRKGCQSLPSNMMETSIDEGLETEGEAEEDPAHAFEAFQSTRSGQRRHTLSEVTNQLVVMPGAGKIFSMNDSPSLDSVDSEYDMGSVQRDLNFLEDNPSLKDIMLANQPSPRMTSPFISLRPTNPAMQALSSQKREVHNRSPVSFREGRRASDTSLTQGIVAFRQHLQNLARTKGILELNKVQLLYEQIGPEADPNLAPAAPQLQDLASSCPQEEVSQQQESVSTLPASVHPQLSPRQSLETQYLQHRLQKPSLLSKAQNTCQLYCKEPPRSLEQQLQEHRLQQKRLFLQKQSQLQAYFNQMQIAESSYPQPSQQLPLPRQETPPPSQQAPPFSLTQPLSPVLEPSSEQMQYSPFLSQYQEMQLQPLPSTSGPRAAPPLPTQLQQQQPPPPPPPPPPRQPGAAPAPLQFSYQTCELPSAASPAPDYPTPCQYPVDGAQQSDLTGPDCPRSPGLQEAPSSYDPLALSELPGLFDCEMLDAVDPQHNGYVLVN
Description: 2. Biochemical Activities Determination for SIK2 Protein
as §1, with “of SIK2” for “of SIK1”, “kinase (full length,” for “kinase (aa1-303,”, “containing SIK2” for “containing SIK1”, “kinase, 80” for “kinase, 110”, “μM […]” for “μM STK1”, “biotinylated STK1” for “biotinylated SIK1”

T1 sequence (Q9Y2K2 59-365): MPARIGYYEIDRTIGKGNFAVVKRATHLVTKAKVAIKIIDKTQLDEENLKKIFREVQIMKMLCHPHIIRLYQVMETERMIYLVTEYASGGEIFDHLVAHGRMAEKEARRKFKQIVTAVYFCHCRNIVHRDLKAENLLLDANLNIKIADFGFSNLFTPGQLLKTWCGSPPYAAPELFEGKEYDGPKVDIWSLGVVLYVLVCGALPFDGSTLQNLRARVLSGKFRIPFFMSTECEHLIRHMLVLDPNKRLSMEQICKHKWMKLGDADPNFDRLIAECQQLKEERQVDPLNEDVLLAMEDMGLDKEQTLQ

Q: `COc1cc(-c2coc3cc(-c4cnn(C)c4)ccc23)cc2c1C(=O)N(CC(F)(F)F)CCO2` [Compound 28, 6-methoxy-8-(6-(1-methyl-1H-pyrazol-4-yl)benzofuran-3-yl)-4-(2,2,2-trifluoroethyl)-3,4-dihydrobenzo[f][1,4]oxazepin-5 (2H)-one] was tested. Which IC50 [1] did it give?
A: 281 nM

Q: What about the IC50 [2] of the same compound?
A: 3940 nM

Q: What about the IC50 [3] of the same compound?
A: 140 nM

Q: How did the IC50 [1] turn out when `COc1cc(-c2coc3cc(-c4cnn(C)c4)ccc23)cc2c1C(=O)N(CC(F)(F)F)[C@@H](C)C2` [Compound 29A, (S)-8-methoxy-3-methyl-6-(6-(1-methyl-1H-pyrazol-4-yl)benzofuran-3-yl)-2-(2,2,2-trifluoroethyl)-3,4-dihydroisoquinolin-1 (2H)-one] was run?
A: 42 nM

Q: What about the IC50 [2] of the same compound?
A: 216 nM

Q: What about the IC50 [3] of the same compound?
A: 15 nM

Q: Which results are given for `COc1cc(-c2coc3cc(-c4cnn(C)c4)ccc23)cc2c1C(=O)N(CC(F)(F)F)[C@H](C)C2` [Compound 29B, (R)-8-methoxy-3-methyl-6-(6-(1-methyl-1H-pyrazol-4-yl)benzofuran-3-yl)-2-(2,2,2-trifluoroethyl)-3,4-dihydroisoquinolin-1 (2H)-one]?
A: IC50 [1]: 374 nM; IC50 [2]: 5980 nM; IC50 [3]: 178 nM

Q: How did the IC50 [1] turn out when `COc1cc(-c2coc3cc(-c4cnn(C)c4)ccc23)cc2c1C(=O)N(Cc1ccncc1)CC2` [Compound 30, 8-methoxy-6-(6-(1-methyl-1H-pyrazol-4-yl)benzofuran-3-yl)-2-(pyridin-4-ylmethyl)-3,4-dihydroisoquinolin-1 (2H)-one] was run?
A: 1110 nM

Q: And the IC50 [2]?
A: 2610 nM

Q: And the IC50 [3]?
A: 531 nM

Q: Which IC50 [1] does the source give for `COc1cc(-c2coc3cc(-c4cnn(C)c4)ccc23)cc2c1C(=O)N(Cc1ccccc1)CC2` [Compound 31, 2-benzyl-8-methoxy-6-(6-(1-methyl-1H-pyrazol-4-yl)benzofuran-3-yl)-3,4-dihydroisoquinolin-1 (2H)-one] here?
A: 882 nM

Q: And the IC50 [2]?
A: 5450 nM

Q: And the IC50 [3]?
A: 673 nM

Q: With `Cn1cc(-c2ccc3c(-c4ccc(C#N)cc4)coc3c2)cn1` [Compound 32, 4-(6-(1-methyl-1H-pyrazol-4-yl)benzofuran-3-yl)benzonitrile] as the compound, how does the IC50 [1] read?
A: 829 nM

Q: And the IC50 [2]?
A: 1880 nM

Q: What about the IC50 [3] of the same compound?
A: 96 nM

Q: `COc1cc(-c2coc3cc(-c4cnn(C)c4)ccc23)cc2c1C(=O)N(CC(F)(F)F)CC2(C)C` [Compound 33, 8-methoxy-4,4-dimethyl-6-(6-(1-methyl-1H-pyrazol-4-yl)benzofuran-3-yl)-2-(2,2,2-trifluoroethyl)-3,4-dihydroisoquinolin-1 (2H)-one] was tested. Which IC50 [1] did it give?
A: 156 nM

Q: And the IC50 [2]?
A: 9100 nM

Q: And the IC50 [3]?
A: 82 nM

Q: For `COc1cc(-c2coc3cc(-c4cnn(C)c4)ccc23)cc(OC)c1-c1nnc(C)o1` [Compound 34, 2-(2,6-dimethoxy-4-(6-(1-methyl-1H-pyrazol-4-yl)benzofuran-3-yl)phenyl)-5-methyl-1,3,4-oxadiazole], which IC50 [1] is on record?
A: 420 nM

Q: What about the IC50 [2] of the same compound?
A: 2680 nM

Q: What about the IC50 [3] of the same compound?
A: 239 nM

Q: For `COc1cc(-c2coc3cc(-c4cnn(C)c4)ccc23)cc(OC)c1-c1nnc(C2CC2)o1` [Compound 35, 2-cyclopropyl-5-(2,6-dimethoxy-4-(6-(1-methyl-1H-pyrazol-4-yl)benzofuran-3-yl)phenyl)-1,3,4-oxadiazole], which IC50 [1] is on record?
A: 255 nM

Q: And the IC50 [2]?
A: 2080 nM

Q: What about the IC50 [3] of the same compound?
A: 132 nM

Q: `CCc1nnc(-c2c(OC)cc(-c3coc4cc(-c5cnn(C)c5)ccc34)cc2OC)o1` [Compound 36, 2-(2,6-dimethoxy-4-(6-(1-methyl-1H-pyrazol-4-yl)benzofuran-3-yl)phenyl)-5-ethyl-1,3,4-oxadiazole] was tested. Which IC50 [1] did it give?
A: 305 nM

Q: What about the IC50 [2] of the same compound?
A: 2090 nM

Q: And the IC50 [3]?
A: 144 nM

Q: For `COc1cc(-c2coc3cc(-c4cnn(C5CN(C)C5)c4)ccc23)cc(OC(F)F)c1C(=O)N[C@@H]1C[C@@H]1F` [Compound 37, 2-(difluoromethoxy)-N-((1R,2S)-2-fluorocyclopropyl)-6-methoxy-4-(6-(1-(1-methylazetidin-3-yl)-1H-pyrazol-4-yl)benzofuran-3-yl)benzamide], which IC50 [1] is on record?
A: 4.2 nM

Q: And the IC50 [2]?
A: 25 nM

Q: And the IC50 [3]?
A: 1.4 nM

Q: For `COc1cc(-c2coc3cc(-c4cnn(C5CCN(C)C5)c4)ccc23)cc(OC(F)F)c1C(=O)N[C@@H]1C[C@@H]1F` (stereo partly drawn) [Compound 38, 2-(difluoromethoxy)-N-((1R,2S)-2-fluorocyclopropyl)-6-methoxy-4-(6-(1-(1-methylpyrrolidin-3-yl)-1H-pyrazol-4-yl)benzofuran-3-yl)benzamide], which IC50 [1] is on record?
A: 3.9 nM

Q: And the IC50 [2]?
A: 24 nM

Q: And the IC50 [3]?
A: 1.7 nM

Q: With `COc1cc(-c2coc3cc(-c4cnn(C5CCN(C)CC5)c4)ccc23)cc(OC(F)F)c1C(=O)N[C@@H]1C[C@@H]1F` [Compound 39, 2-(difluoromethoxy)-N-((1R,2S)-2-fluorocyclopropyl)-6-methoxy-4-(6-(1-(1-methylpiperidin-4-yl)-1H-pyrazol-4-yl)benzofuran-3-yl)benzamide] as the compound, how does the IC50 [1] read?
A: 4.1 nM

Q: What about the IC50 [2] of the same compound?
A: 25 nM

Q: And the IC50 [3]?
A: 1.7 nM

Q: How did the IC50 [1] turn out when `O=C1c2c(cc(-c3coc4cc(-c5cnn(C6CCOC6)c5)ccc34)cc2OC(F)F)CCN1CC(F)(F)F` (stereo not drawn) [Compound 40, 8-(difluoromethoxy)-6-(6-(1-(tetrahydrofuran-3-yl)-1H-pyrazol-4-yl)benzofuran-3-yl)-2-(2,2,2-trifluoroethyl)-3,4-dihydroisoquinolin-1 (2H)-one] was run?
A: 31 nM

Q: And the IC50 [2]?
A: 537 nM

Q: What about the IC50 [3] of the same compound?
A: 14 nM

Q: Which results are given for `O=C1c2c(cc(-c3coc4cc(-c5cnn(C6CCOCC6)c5)ccc34)cc2OC(F)F)CCN1CC(F)(F)F` [Compound 41, 8-(difluoromethoxy)-6-(6-(1-(tetrahydro-2H-pyran-4-yl)-1H-pyrazol-4-yl)benzofuran-3-yl)-2-(2,2,2-trifluoroethyl)-3,4-dihydroisoquinolin-1 (2H)-one]?
A: IC50 [1]: 69 nM; IC50 [2]: 1710 nM; IC50 [3]: 33 nM

Q: How did the IC50 [1] turn out when `O=C1c2c(cc(-c3coc4cc(-c5cnn(C6CNC6)c5)ccc34)cc2OC(F)F)CCN1CC(F)(F)F` [Compound 42, 6-(6-(1-(azetidin-3-yl)-1H-pyrazol-4-yl)benzofuran-3-yl)-8-(difluoromethoxy)-2-(2,2,2-trifluoroethyl)-3,4-dihydroisoquinolin-1 (2H)-one] was run?
A: 115 nM

Q: What about the IC50 [2] of the same compound?
A: 1590 nM

Q: What about the IC50 [3] of the same compound?
A: 25 nM
